For one assay, the system named is rats. Description: Locomotor activity (open field), ethanol-reduced locomotion. The format is in vivo, rat. As to conditions: ethanol 1.75 g/kg i.p., five minutes after administration, open field. The procedure:
In this experiment, the effects of GAL(1-15) (3 nmol) on ethanol-reduced locomotion (1.75 g/kg; intraperitoneal (i.p.)) (Vallof et al., 2016) were investigated. Locomotor activity was recorded in rat open field (100×100×50 cm) where animals were individually placed and left to freely explore. Their behaviour was recorded over a 30-minute period by ceiling-mounted video camera, and locomotor activity was analysed using the video-tracking software EthovisionXT. After each assay, all surfaces were cleaned with a paper towel and 70% ethanol solution. For locomotor activity, total distance travelled (cm) and mean speed (cm/s) were recorded. Groups of rats were administered via i.c.v. GAL(1-15) or vehicle 20 minutes before the test; i.p. ethanol (1.75 g/kg) or saline solution administration was performed 5 minutes before the test.

The test system of a further assay is GALR1. The note with it: for GALR1 mRNA expression in the corpus striatum: naive rats, mean ± SEM. The procedure: (§1) The method to perform RNA isolation and RT-PCR was described previously (Millon et al., 2015). Total RNA was isolated from the corpus striatum using RNeasy Lipid Tissue kit (Qiagen, Hilden, Germany). cDNA was obtained using a Reverse Transcriptase Core kit (Eurogentec, Seraing, Belgium). These steps were performed according to the manufacturer's instructions.
(§2) All PCR analyses were performed in triplicate using Power SYBR Green PCR Master Mix (Applied Biosystems, Foster City, USA) in the 7500 RT-PCR system (Applied Biosystems, Foster City, USA). The primer sequences used in this study are:
(§3) The data was analysed using the comparative Ct method and normalised to measurements of glyceraldehyde-3-phosphate dehydrogenase (GAPDH) mRNA.
(§4) Groups of naïve rats were injected i.p. with ethanol at 4 g/kg (Bilbao et al., 2016), dissolved in a 0.9% sterile saline solution (w/v), and 0, 2, and 4 hours after the injection the brains were extracted after a rapid decapitation. The corpus striatum was quickly extracted from all the animals and frozen immediately on solid CO2 until use. The method to perform RNA isolation and RT-PCR was described previously.

For a further assay, the system named is GALR2. The note with it: for GALR2 mRNA expression in the corpus striatum: naive rats, mean ± SEM. The protocol: as §1, §2, §3, §4
Assay [1] deals with hepatic cytosolic alcohol dehydrogenase (ADH). The protocol: The activity of hepatic cytosolic alcohol dehydrogenase (ADH) in the rats from the two-bottle choice test was analysed. ADH activity has a good correlation with ethanol elimination rates in vivo (Lumeng et al., 1979) and chronic ethanol administration causes an increase in ADH activity (Buris et al., 1985).
The livers were removed 2 hours after i.c.v. injections and frozen in solid CO2 until use. Determination of ADH activity was performed in homogenized liver tissue in a TrisHCl solution (10 mM, pH=8.8; 0.5 mM dithiothreitol) centrifuged at 12.000 g for 10 minutes. ADH activity was evaluated using a microassay adapted to Cobas Mira analyser according to Shephard and colleagues (Shephard et al., 1987). Briefly, 300 μl of NAD solution (2.9 mM in 0.1 M Glycine/NaOH: p=10) was added to 30 μl of sample. The first optical reading was recorded before the addition of 20 μl of 17 mM ethanol, and then the rate of change in absorption of the NADH chromogen was recorded at 340 nm over time on the Cobas Mira analyser at 37° C. One activity unit was defined as the reduction of […] NAD to NADH/min at 37° C.

The mark [2] stands for this setting: 0 hours after i.p. injection of EtOH (4 g/kg).
Where [3] appears, read: 2 hours after i.p. injection of EtOH (4 g/kg).
The mark [4] stands for this setting: 4 hours after i.p. injection of EtOH (4 g/kg).

Where two headings read alike, the source gives them in different places.

For `CCO` [EtOH, ethanol], in the assay with rats, the distance travelled result is on record as “reduced”. Moreover, the mean speed entry in the assay on rats is listed as “reduced”. The figures for the “GALR1 mRNA expression in the corpus striatum” value with GALR1 (setting [2]), with GALR1 (setting [3]) and in the assay with GALR1 (setting [4]) were 0.87 ± 0.2, 0.60 ± 0.1 and 0.47 ± 0.1, respectively. Further, in the assay with GALR1 (single injection of ethanol 4 g/kg i.p., at 2 and 4 hours), the “effect on GALR1 expression in the corpus striatum” value is on record as “no effect”. For the same molecule, the “GALR2 mRNA expression in the corpus striatum” value is 1.21 ± 0.1 with GALR2 (setting [2]), 1.23 ± 0.1 in the assay on GALR2 (setting [3]) and 1.44 ± 0.1 with GALR2 (setting [4]). In the assay on GALR2 (single injection of ethanol 4 g/kg i.p., any time point), the “effect on GALR2 mRNA levels in the corpus striatum” value is on record as “No effects were observed”. Moreover, the “ADH activity (liver)” value in assay [1] (voluntary ethanol intake in two-bottle choice test, i.c.v. cerebrospinal fluid vehicle, mean ± SEM) is 313.1 ± 10.6 protein IU/g. The “ADH activity compared with the baseline group” value in assay [1] (voluntary ethanol intake through the two-bottle choice test protocol) was “significant increase”.

For the origin of these results see patent publication US11986513B2, “GAL(1-15) and analogues thereof for use in the prevention and/or treatment of alcohol-related effects and disorders” (UNIVERSIDAD DE MÁLAGA, priority 2017, dated 2024).
